Laboratory results as given in paper PMC5849682, “Novel 2-pheynlbenzofuran derivatives as selective butyrylcholinesterase inhibitors for Alzheimer’s disease” (Scientific Reports, 2018).

What was measured:
EeAChE = target: T1, EeAChE (Electrophorus electricus, UniProt O42275); experiment: biochemical; type: biochemical; conditions: for IC50: mean ± SD, n = 3
T1 construct: purchased Sigma-Aldrich
Experimental: (§1) The enzymes and reagents for biochemical assays were obtained from Sigma-Aldrich. Kinetic assays of cholinesterase activity were performed using Ellman’s method and analyzed as previously described. Briefly, in the microplate assay the reaction mixture contained phosphate buffer (0.1 M, pH 8.0), AChE or BChE solution (0.3 or 0.15 U/mL respectively), 5,5′-dithiobis-(2-nitrobenzoic) acid (DTNB; 1.5 mM), and inhibitor dissolved in 1% DMSO at the desired concentrations or DMSO alone (control) in a final volume of 0.2 mL. […] The activity of the enzymes was performed at 25 °C.
(§2) Acetylcholinesterase was from Electrophorus electricus (EeAChE), while butylcholinesterase was from equine serum (eqBChE) or human serum (hBChE).
(§3) IC50 values were calculated by the interpolation of dose-response curves using GraphPad Prism 6 (Graphpad Software, San Diego, California, USA).

eqBChE [1] = target: T2, eqBChE (Equus caballus, UniProt P81908); experiment: biochemical; type: biochemical; conditions: for Selectivity to eqBChE: IC50 for AChE/IC50 for BChE; for IC50: mean ± SD, n = 3
T2 construct: butylcholinesterase was from equine serum (eqBChE); purchased Sigma-Aldrich; host or cells: equine serum
T2 sequence (P81908 whole entry): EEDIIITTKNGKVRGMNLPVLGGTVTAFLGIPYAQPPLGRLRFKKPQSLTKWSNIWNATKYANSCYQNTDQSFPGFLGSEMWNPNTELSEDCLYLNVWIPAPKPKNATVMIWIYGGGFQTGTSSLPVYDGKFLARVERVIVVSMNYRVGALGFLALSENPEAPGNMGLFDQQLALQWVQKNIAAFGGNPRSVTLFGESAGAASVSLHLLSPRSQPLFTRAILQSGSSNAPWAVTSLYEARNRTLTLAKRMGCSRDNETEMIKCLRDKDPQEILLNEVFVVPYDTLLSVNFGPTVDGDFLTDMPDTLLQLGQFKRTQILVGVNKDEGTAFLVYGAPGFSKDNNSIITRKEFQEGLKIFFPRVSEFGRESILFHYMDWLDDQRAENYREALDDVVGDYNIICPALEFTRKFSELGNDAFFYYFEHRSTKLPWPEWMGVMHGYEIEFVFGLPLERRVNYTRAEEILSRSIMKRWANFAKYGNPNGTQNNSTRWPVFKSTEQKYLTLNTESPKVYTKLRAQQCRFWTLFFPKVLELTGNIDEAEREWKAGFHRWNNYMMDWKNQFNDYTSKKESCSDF
Experimental: as §1, §2, §3

hBChE = target: T3, hBChE (Homo sapiens, UniProt P06276); experiment: Cholinesterase assay (Ellman's method), hBChE; type: biochemical; conditions: for IC50: mean ± SD, n = 3; for hBChE inhibitory activity, times more active than galantamine: relative to reference compound galantamine, same assay conditions
T3 construct: butylcholinesterase was from equine serum (eqBChE) or human serum (hBChE); purchased Sigma-Aldrich; host or cells: human serum
T3 sequence (P06276 29-602): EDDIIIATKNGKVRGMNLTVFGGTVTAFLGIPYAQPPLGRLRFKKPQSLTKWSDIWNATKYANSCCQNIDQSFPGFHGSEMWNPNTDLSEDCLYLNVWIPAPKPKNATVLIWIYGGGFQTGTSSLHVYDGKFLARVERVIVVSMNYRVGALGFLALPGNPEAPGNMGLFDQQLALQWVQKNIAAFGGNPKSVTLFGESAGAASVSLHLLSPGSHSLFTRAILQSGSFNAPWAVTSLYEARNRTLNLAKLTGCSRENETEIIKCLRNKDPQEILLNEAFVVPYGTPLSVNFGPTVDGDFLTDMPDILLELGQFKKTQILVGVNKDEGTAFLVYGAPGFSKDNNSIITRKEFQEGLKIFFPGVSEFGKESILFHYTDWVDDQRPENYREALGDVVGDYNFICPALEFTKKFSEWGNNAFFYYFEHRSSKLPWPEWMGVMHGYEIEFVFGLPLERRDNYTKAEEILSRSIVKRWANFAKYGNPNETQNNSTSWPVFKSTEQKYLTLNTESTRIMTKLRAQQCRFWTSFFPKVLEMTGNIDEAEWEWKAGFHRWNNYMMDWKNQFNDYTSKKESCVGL
Experimental: as §1, §2, §3

eqBChE [2] = target: T2, eqBChE; experiment: Kinetic study of eqBChE inhibition (Lineweaver-Burk plots); type: biochemical; conditions: for type of inhibition: Lineweaver-Burk plot analysis; for KIS (binding with the enzyme-substrate complex): secondary plot of 1/Vmax versus compound concentration; for KIS (binding with the enzyme-substrate complex) / Ki: substrate BTCI; for Ki: secondary plot of slope (Km/Vmax) versus compound concentration, read-out: KI (binding with the free enzyme)
Experimental: . Further to evaluate the selective characteristics and type of inhibition, we investigated the kinetic behaviour of eqBChE at different concentration of S-butyrylthiocholine iodide (BTCI) and inhibitors by Lineweaver-Burk plot analysis (Fig. 2).
The enzymes and reagents for biochemical assays were obtained from Sigma-Aldrich. Kinetic assays of cholinesterase activity were performed using Ellman’s method and analyzed as previously described. Briefly, in the microplate assay the reaction mixture contained phosphate buffer (0.1 M, pH 8.0), AChE or BChE solution (0.3 or 0.15 U/mL respectively), 5,5′-dithiobis-(2-nitrobenzoic) acid (DTNB; 1.5 mM), and inhibitor dissolved in 1% DMSO at the desired concentrations or DMSO alone (control) in a final volume of 0.2 mL. Finally, acetylthiocholine iodide (ATCI) or S-butyrylthiocholine iodide (BTCI) (1.5 mM) as the substrate was added to the reaction mixture and the absorbance immediately monitored at 405 nm. The activity of the enzymes was performed at 25 °C.
Kinetic characterization was performed by constructing Lineweaver-Burk plots by plotting 1/V vs 1/[S] in the presence of different concentrations of inhibitor and substrate. Kinetics constants were determined by the replots of the Slopes (KM/Vmax) or 1/Vmax versus the inhibitor concentration.

[3] = ABTS radical-scavenging antioxidant assay; conditions: mean ± SD of three independent experiments
Experimental: Total free radical-scavenging capacity of the compounds was determined by ABTS^.+ [2,2′-azinobis-(3-ethylbenzothiazoline-6-sulfonic acid)] method using Trolox as antioxidant standard, as previously reported.

NSC-34 cells = experiment: MTT cell viability assay; type: cell-based, Mouse; conditions: 0–100 μM, 24 h, at the concentration in which eqBChE activity was inhibited
Experimental: After obtaining encouraging results from the inhibitory assay experiments, biosafety effectiveness of the two promising compounds (15 and 17) was further evaluated. Cells were treated with different concentration of each compound (0–100 μM) for 24 h and their potential cytotoxic effect on NSC-34 cells was determined by using MTT assay. Viability of the cells treated with the compounds 15 and 17 and comparison to the control cells were performed (Fig. 4).
Mouse motor neuron like cell line (NSC-34) was purchased from the American Type Culture Collection (ATCC, Manassas, Virginia, USA). The cells were cultured in Dulbecco’s Modified Eagle Medium (DMEM) containing 10% fetal bovine serum (FBS; Gibco, NY, USA), and 1% penicillin/streptomycin at 37 °C in a humidified atmosphere with 5% CO2. Cell viability was detected by the colorimetric 3-(4,5-dimethylthiazol-2-yl)-2,5-diphenyltetrazolium bromide (MTT) assay. This is a colorimetric assay for measuring the activity of mitochondrial enzymes in living cells that convert MTT into purple formazan crystals. Briefly, cells were seeded in a 96-well plate (10^4 cells/well) and incubated with samples at concentration ranging from 10 to 100 μM for […]. […] The resulting violet formazan precipitates were dissolved in isopropanol and the absorbance of each well was determined at 590 nm using a microplate reader with a 630 nm reference.

BChE = conditions: previous study ref 34; cited from earlier work

T1 sequence (O42275 24-633): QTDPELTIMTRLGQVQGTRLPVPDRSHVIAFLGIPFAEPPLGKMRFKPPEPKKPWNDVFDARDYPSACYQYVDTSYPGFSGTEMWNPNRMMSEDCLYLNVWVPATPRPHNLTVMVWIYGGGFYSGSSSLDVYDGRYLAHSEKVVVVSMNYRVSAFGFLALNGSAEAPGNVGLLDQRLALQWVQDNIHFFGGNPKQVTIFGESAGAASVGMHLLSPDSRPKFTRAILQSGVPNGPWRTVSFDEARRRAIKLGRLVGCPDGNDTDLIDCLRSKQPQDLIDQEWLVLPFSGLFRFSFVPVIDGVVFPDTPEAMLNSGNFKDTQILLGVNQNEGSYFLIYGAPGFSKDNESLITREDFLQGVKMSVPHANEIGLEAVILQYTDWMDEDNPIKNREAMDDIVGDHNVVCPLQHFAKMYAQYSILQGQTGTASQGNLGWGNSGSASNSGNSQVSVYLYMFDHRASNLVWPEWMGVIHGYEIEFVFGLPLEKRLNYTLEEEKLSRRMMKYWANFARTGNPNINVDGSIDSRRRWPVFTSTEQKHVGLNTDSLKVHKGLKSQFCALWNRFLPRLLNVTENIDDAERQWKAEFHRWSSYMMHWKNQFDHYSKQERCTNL

SMILES	IC50 (EeAChE)	Selectivity to eqBChE (eqBChE [1])	IC50 (eqBChE [1])	EC50 [3]	other results
Oc1cc(O)cc(-c2cc3cccc(Cl)c3o2)c1 [Compound 15]	≥ 100 µM	>16.0	6.23 ± 0.43 µM	14.9 µM	IC50 (hBChE): 27.5 ± 1.82 µM; hBChE inhibitory activity, times more active than galantamine (hBChE): 2 times; type of inhibition (eqBChE [2]): mixed-type inhibitor; KIS (binding with the enzyme-substrate complex) (eqBChE [2]): 8.66 µM; Ki (eqBChE [2]): 13.9 µM; cytotoxic effect (NSC-34 cells): no considerable cytotoxic effect
Oc1cc(O)cc(-c2cc3cc(Cl)ccc3o2)c1 [Compound 16]	80 ± 7.3 µM	2.2	36.6 ± 2.9 µM	17.6 ± 0.82 µM	–
Oc1cc(O)cc(-c2cc3cccc(Br)c3o2)c1 [Compound 17]	100 ± 6.1 µM	28.0	3.57 ± 0.25 µM	16.7 ± 1.31 µM	eqBChE inhibitory activity, times more active than galantamine (eqBChE [1]; relative to reference compound galantamine): ~8 times; IC50 (hBChE): 27.5 ± 1.53 µM; hBChE inhibitory activity, times more active than galantamine (hBChE): 2 times; type of inhibition (eqBChE [2]): non-competitive inhibitor; KIS (binding with the enzyme-substrate complex) (eqBChE [2]): 4.7 µM; Ki (eqBChE [2]): 4.3 µM; cytotoxic effect (NSC-34 cells): no considerable cytotoxic effect
Oc1cc(O)cc(-c2cc3cc(Br)ccc3o2)c1 [Compound 18]	66 ± 4.2 µM	2.2	30 ± 2.7 µM	17.5 ± 0.93 µM	–
Cc1cccc2cc(-c3cc(O)cc(O)c3)oc12 [Compound 19]	> 100 µM	>10.0	10 ± 0.96 µM	19.3 ± 1.43 µM	–
Cc1ccc2oc(-c3cc(O)cc(O)c3)cc2c1 [Compound 20]	> 100 µM	>8.0	12.5 ± 1.29 µM	18.2 ± 0.86 µM	–
Oc1cc(O)cc(-c2cc3ccccc3o2)c1 [Compound 21]	> 100 µM	>4.0	25.2 ± 1.3 µM	23.2 ± 1.54 µM	–
Oc1cc(-c2cc3cccc(Cl)c3o2)cc(O)c1O [Compound 22]	50 ± 3.3 µM	1.9	25.7 ± 1.6 µM	26.3 ± 1.46 µM	–
Oc1cc(-c2cc3cc(Cl)ccc3o2)cc(O)c1O [Compound 23]	30 ± 2.8 µM	0.78	38.2 ± 2.4 µM	12.5 ± 0.44 µM	–
Oc1cc(-c2cc3cccc(Br)c3o2)cc(O)c1O [Compound 24]	37 ± 2.6 µM	2.0	18.4 ± 0.93 µM	15.4 ± 0.81 µM	–
Oc1cc(-c2cc3cc(Br)ccc3o2)cc(O)c1O [Compound 25]	25 ± 1.9 µM	0.90	27.6 ± 1.9 µM	9.46 ± 0.68 µM	–
Cc1cccc2cc(-c3cc(O)c(O)c(O)c3)oc12 [Compound 26]	66 ± 5.4 µM	3.3	19.8 ± 1.2 µM	6.6 ± 0.24 µM	–
Cc1ccc2oc(-c3cc(O)c(O)c(O)c3)cc2c1 [Compound 27]	≥ 100 µM	>6.2	16.1 ± 1.05 µM	8.93 ± 0.57 µM	–
Oc1cc(-c2cc3ccccc3o2)cc(O)c1O [Compound 28]	> 100 µM	–	> 100 µM	52.8 ± 2.43 µM	cholinesterase inhibitory activity (EeAChE) (EeAChE): did not exert any cholinesterase inhibitory activity; cholinesterase inhibitory activity (eqBChE) (eqBChE [1]): did not exert any cholinesterase inhibitory activity
Cc1c(C)c2c(c(C)c1O)CCC(C)(C(=O)O)O2 (stereo not drawn) [Trolox, reference compound]	–	–	–	13 ± 1.1 µM	–
